{
  "source": "paper PMC3974845",
  "about": "(International journal of peptide research and therapeutics, 2013)",
  "origin": "cited, not measured here",
  "target": "full length Stat3 (SH2 domain) (Homo sapiens, UniProt P40763)",
  "sequence (P40763 whole entry, species assumed, the tested form may be a part)": "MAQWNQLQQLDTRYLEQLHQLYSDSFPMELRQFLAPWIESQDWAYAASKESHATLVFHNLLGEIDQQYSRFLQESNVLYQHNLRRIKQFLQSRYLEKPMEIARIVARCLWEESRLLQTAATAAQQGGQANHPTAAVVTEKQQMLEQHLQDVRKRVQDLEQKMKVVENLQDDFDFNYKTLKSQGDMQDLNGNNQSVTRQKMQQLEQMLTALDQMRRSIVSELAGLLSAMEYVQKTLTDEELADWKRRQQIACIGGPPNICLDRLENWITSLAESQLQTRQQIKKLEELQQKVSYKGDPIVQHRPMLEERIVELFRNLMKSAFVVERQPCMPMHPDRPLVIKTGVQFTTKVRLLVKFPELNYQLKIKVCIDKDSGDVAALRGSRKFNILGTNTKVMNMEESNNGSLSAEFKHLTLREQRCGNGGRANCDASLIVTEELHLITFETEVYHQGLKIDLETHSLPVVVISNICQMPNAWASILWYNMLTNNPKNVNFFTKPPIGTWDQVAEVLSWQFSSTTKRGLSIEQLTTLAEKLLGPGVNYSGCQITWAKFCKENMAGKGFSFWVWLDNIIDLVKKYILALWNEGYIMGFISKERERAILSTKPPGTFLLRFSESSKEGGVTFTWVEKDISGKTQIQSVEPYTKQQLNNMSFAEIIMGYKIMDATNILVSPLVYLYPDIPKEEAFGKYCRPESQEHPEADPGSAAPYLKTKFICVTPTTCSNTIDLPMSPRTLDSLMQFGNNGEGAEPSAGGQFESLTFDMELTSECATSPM",
  "key": {"[1]": {"conditions": "affinity for Stat3, Table 1, ref Mandal et al. 2009b"}, "[2]": {"conditions": "affinity for Stat3, Table 1, ref Coleman et al. 2005"}, "[3]": {"conditions": "affinity for Stat3, Table 1, ref Mandal et al. 2011"}},
  "note": "Where two headings read alike, the source gives them in different places. [ ]: non-standard residue; d: D form. pY = N[C@@H](Cc1ccc(OP(=O)(O)O)cc1)C(=O)O",
  "data": [
    {"substance": "pCinn-Leu-mPro-Gln-NHBn [Compound 14]", "values": [
      {"measurement": "IC50", "setting": "[1]", "result": "68 ± 8", "unit": "nM"}
    ]},
    {"substance": "pCinn-Leu-Pro-Gln-NHBn [Compound 13]", "values": [
      {"measurement": "IC50", "setting": "[1]", "result": "138 ± 8", "unit": "nM"}
    ]},
    {"substance": "Ac-pTyr-Leu-mPro-Gln-Val- NH2 [Compound 12]", "values": [
      {"measurement": "IC50", "setting": "[2]", "result": "265 ± 14", "unit": "nM"}
    ]},
    {"substance": "βMpCinn-Leu-Pro-Gln- NHBn [Compound 15]", "values": [
      {"measurement": "IC50", "setting": "[3]", "result": "70 ± 15", "unit": "nM"}
    ]},
    {"substance": "Ac-pTyr-Leu-Pro-Gln-Val- NH2 (Ac-[pY]LPQV-NH2; SMILES CC(=O)N[C@@H](Cc1ccc(OP(=O)(O)O)cc1)C(=O)N[C@@H](CC(C)C)C(=O)N1CCC[C@H]1C(=O)N[C@@H](CCC(N)=O)C(=O)N[C@H](C(N)=O)C(C)C) [Compound 11]", "values": [
      {"measurement": "IC50", "setting": "[2]", "result": "739 ± 31", "unit": "nM"}
    ]},
    {"substance": "βMpCinn-Leu-mPro-Apa [Compound 18]", "values": [
      {"measurement": "IC50", "setting": "[3]", "result": "88 ± 11", "unit": "nM"},
      {"measurement": "IC50", "setting": "βMpCinn-Leu-Xaa-Apa series, fluorescence polarization, ref Mandal et al. 2011", "result": "88 ± 11", "unit": "nM"}
    ]},
    {"substance": "βMpCinn-Leu-mPro-Gln- NHBn [Compound 16]", "values": [
      {"measurement": "IC50", "setting": "[3]", "result": "46 ± 5", "unit": "nM"}
    ]}
  ]
}
